The values below come from patent US12649712B2, “Indene compounds, pharmaceutical compositions thereof, and their therapeutic applications” (NucMito Pharmaceuticals Co. Ltd., priority 2020, dated 2026).

The subject of one assay is alpha-smooth muscle actin (α-SMA). Kind of assay: Inhibition of TGF-β induced expression of alpha-smooth muscle actin (α-SMA) in CFSC cells, western blot. In kind it is cell-based. The following applies: compound at 10 μM, TGF-β (10 ng/mL), 24 hours, decrease in band intensity vs TGF-β only. The procedure, abridged:
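Cells at 60–70% confluence in serum-free DMEM received compound at 10 μM plus TGF-β (10 ng/mL) for 24 h at 37 °C. NP-40 lysates were run on western blot for α-SMA and β-actin, with ECL bands quantified. % inhibition = decrease in band intensity versus TGF-β alone.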
The inhibition is the relative decrease from the control value, in per cent. Lower therefore signals a response near the control. `CC1=C(CC(=O)O)c2cc(F)ccc2/C1=C\c1ccc(Oc2ccc(F)cc2)cc1` [Compound A11, 2-[(1Z)-5-Fluoro-1-{[4-(4-fluorophenoxy)phenyl]methylidene}-2-methyl-1H-inden-3-yl]acetic acid] gave an inhibition at 10 µM of 80 to 90%.
For the compound `CC1=C(CC(=O)O)c2cc(F)ccc2/C1=C\c1ccc(C(C)C)cc1` [Compound B9, (Z)-2-(5-fluoro-2-methyl-1-(4-isopropylbenzylidene)-1H-inden-3-yl)acetic acid], the inhibition at 10 µM is more than 90%.
Take `COc1ccc(Oc2cccc(/C=C3/C(C)=C(CC(=O)O)c4cc(F)ccc43)c2)cc1` [Compound D22, 2-[(1Z)-5-Fluoro-2-methyl-1-({3-[4-methoxyphenoxy]phenyl}methylidene)-1H-inden-3-yl]acetic acid]: the inhibition at 10 µM is more than 90%.
In turn, `CC1=C(CC(=O)O)c2cc(F)ccc2/C1=C\c1ccc(F)c(Oc2ccccc2)c1` [Compound D23, 2-[(1Z)-5-Fluoro-1-(4-fluoro-3-(phenoxy)benzylidene)-2-methyl-1H-inden-3-yl]-acetic acid] displayed an inhibition at 10 µM of more than 90%.
`CC1=C(CC(=O)O)c2cc(F)ccc2/C1=C\c1cccc(Oc2ccc(Cl)cc2)c1` [Compound D25, 2-[(1Z)-5-Fluoro-2-methyl-1-({3-[4-chlorophenoxy]phenyl}methylidene)-1H-inden-3-yl]acetic acid] had an inhibition at 10 µM of more than 90%.
`CC1=C(CC(=O)O)c2cc(F)ccc2/C1=C\c1cccc(Oc2ccc(C(F)(F)F)cc2)c1` [Compound D26, 2-[(1Z)-5-Fluoro-2-methyl-1-({3-[4-trifluoromethylphenoxy]phenyl}-methylidene)-1H-inden-3-yl]acetic acid]: the inhibition at 10 µM is more than 90%.
`CC1=C(CC(=O)O)c2cc(F)ccc2/C1=C\c1cccc(Oc2cccc(C(F)(F)F)c2)c1` [Compound D27, 2-[(1Z)-5-Fluoro-2-methyl-1-({3-[3-trifluoromethylphenoxy]phenyl}-methylidene)-1H-inden-3-yl]acetic acid] displayed an inhibition at 10 µM of more than 90%.
Consider `CC1=C(CC(=O)O)c2cc(F)ccc2/C1=C/c1ccc(Oc2ccc(F)c(F)c2)cc1` [Compound E1, 2-[(1E)-5-Fluoro-2-methyl-1-({4-[3,4-difluorophenoxy]phenyl}methylidene)-1H-inden-3-yl]acetic acid], for which the inhibition at 10 µM is more than 90%.
Take `CC1=C(CC(=O)O)c2cc(F)ccc2/C1=C/c1ccc(Oc2ccc(F)cc2)cc1` [Compound E2, 2-[(1E)-5-Fluoro-2-methyl-1-({4-[4-fluorophenoxy]phenyl}methylidene)-1H-inden-3-yl]acetic acid]: the inhibition at 10 µM was more than 90%.
Compound `CC1=C(CC(=O)O)c2cc(F)ccc2/C1=C/c1ccc(Oc2ccccc2)cc1` [Compound E3, 2-[(1E)-5-Fluoro-2-methyl-1-[(4-phenoxyphenyl)methylidene]-1H-inden-3-yl]acetic acid] registered an inhibition at 10 µM of more than 90%.
`CC1=C(CC(=O)O)c2cc(F)cc(F)c2/C1=C/c1ccc(Oc2ccc(F)cc2)cc1` [Compound E4, 2-[(1E)-5,7-Difluoro-2-methyl-1-({4-[4-fluorophenoxy]phenyl}methylidene)-1H-inden-3-yl]acetic acid] yielded an inhibition at 10 µM of more than 90%.
In the case of `CC1=C(CC(=O)O)c2cc(F)cc(F)c2/C1=C/c1cccc(Oc2ccccc2)c1` [Compound E6, 2-[(1E)-5,7-Difluoro-1-(3-(phenoxy)benzylidene)-2-methyl-1H-inden-3-yl]-acetic acid], the inhibition at 10 µM was more than 90%.

Another assay has as its system CCl4-induced liver fibrosis in C57BL/6 mice. Nature of the assay: Antifibrotic activity in CCl4-induced liver fibrosis, Sirius red staining of liver samples. Type of assay: in vivo. The following applies: C57/BL6 mice, oral once daily for 2 weeks; malotilate 60 mg/kg, A11 and B9 50 mg/kg. As to the method: CCl4-induced liver fibrosis was described previously. Henderson et al., Proc. Nat'l. Acad. Sci. U.S.A. 2006, 103, 5060-5; Henderson et al., Nat. Med. 2013, 19, 1617-24. Briefly, eight-week-old C57BL/6 mice were randomly divided into two groups: a control group and a CCl4 administered group. Liver fibrosis was induced by intraperitoneal administration of 25% CCl4 at 0.5 mL/kg body weight (diluted in corn oil) twice weekly for 6 weeks. Dosing was started during the last 2 weeks of CCl4 administration. Malotilate (Mal) as a reference and compounds A11, A23, and B9 were each freshly prepared by dissolving in PEG 400 and orally administered in a dosing volume of 10 mL/kg. The mice were stratified (n=6-8 per group) based on their body weights and dosed once daily for 2 weeks with a vehicle, malotilate (60 mg/kg), compound A11 (50 mg/kg), compound A23 (50 mg/kg), or compound B9 (50 mg/kg). Their body weights were monitored daily during the intervention period. At the terminal of treatment, the mice were sacrificed and their liver samples were processed as below.
The mice liver samples were all taken at the same position of each large lobe, and then post-fixed in a 10% buffered formaldehyde for 48 h. The fixed livers were embedded in paraffin for microtome slicing into 5-μm-thick sections. The tissue sections were mounted onto MS-coated glass slides, deparaffinized, and stained with picric acid-Sirius red. Stained sections were photographed using a microscope with a digital camera. Images were taken at a full resolution with a single image dimension set at 1,360×1,024 pixels.
Total RNA was extracted from the liver using an MOLPURE® TRIEASY™ Plus Total RNA Kit (Yeasen, Shanghai, China). Total RNA (5 μg) was reverse-transcribed using 1st strand cDNA Synthesis SuperMix for qPCR (gDNA digester plus) Kit (Yeasen, Shanghai, China). […]
Consider `CC1=C(CC(=O)O)c2cc(F)ccc2/C1=C\c1ccc(Oc2ccc(F)cc2)cc1` [Compound A11, 2-[(1Z)-5-Fluoro-1-{[4-(4-fluorophenoxy)phenyl]methylidene}-2-methyl-1H-inden-3-yl]acetic acid], for which the “Sirius red pathological staining of liver samples: effect on fibrosis induced by CCl4” value is recorded as “reversed the fibrosis induced by CCl4”.
Turning to `CC1=C(CC(=O)O)c2cc(F)ccc2/C1=C\c1ccc(C(C)C)cc1` [Compound B9, (Z)-2-(5-fluoro-2-methyl-1-(4-isopropylbenzylidene)-1H-inden-3-yl)acetic acid], the “Sirius red pathological staining of liver samples: effect on fibrosis induced by CCl4” value was “reversed the fibrosis induced by CCl4”.
The same measure, in the same setting: for `CC(C)OC(=O)C(C(=O)OC(C)C)=C1SC=CS1` [Mal, malotilate, reference compound] the value was “reversed the fibrosis induced by CCl4”.
